Reference: patent US11771738B2 (Zoetis Services LLC, priority 2018, dated 2023)
Read-outs that look alike come from different tables or passages of the source.

Tests used:
Format in all cases: cell-based
[1] = tested on: third stage larvae of Haemonchus contortus; experiment: Haemonchus contortus, Larvae Stage 3 (HcL3) In Vitro Assay; settings: Haemonchus contortus, 96 h
[2] = tested on: D. immitis L4 larvae; experiment: Dirofilaria immitis, L4 Stage (DiL4) In Vitro Assay; settings: for minimal effective concentration: Dirofilaria immitis, 72 h, read-out: DiL4 MED, Minimum Effective Dose, D. immitis L4 larvae motility, in vitro; for DiMf/DiL4: larval stage selectivity, ratio of DiMf MED to DiL4 MED
[3] = tested on: microfilariae of Dirofilaria immitis; experiment: Dirofilaria immitis, Microfilaria (DiMf) In Vitro Assay; settings: Dirofilaria immitis, 72 h, read-out: DiMf MED, Minimum Effective Dose, D. immitis microfilariae motility, in vitro
[4] = read-out: HcL3 MED, Haemonchus contortus third stage larvae in vitro, class mark appended to the Ex # in Table 3
[5] = read-out: HcL3 MED, Minimum Effective Dose, H. contortus third stage larvae, approximately 96 hours
[6] = read-out: HcL3 MED, approximately 96 hours incubation, multiple-resistant field isolate

Row | SMILES | minimal effective concentration [1, 4] [µM] | minimal effective concentration [1, 5] [µM] | minimal effective concentration [1, 6] [µM] | minimal effective concentration [2] [µM] | DiMf/DiL4 [2] | minimal effective concentration [3] [µM]
1 | CC(C)C[C@H]1C(=O)O[C@H](Cc2ccc(Cc3ccnn3C3CC3)cc2)C(=O)N(C)[C@@H](CC(C)C)C(=O)O[C@H](C)C(=O)N(C)[C@@H](CC(C)C)C(=O)O[C@H](Cc2ccc(Cc3ccnn3C3CC3)cc2)C(=O)N(C)[C@@H](CC(C)C)C(=O)O[C@H](C)C(=O)N1C [Example 3-268, (3S,6R,9S,12R,15S,18R,21S,24R)-6,18-bis(4-((1-cyclopropyl-1H-pyrazol-5-yl)methyl)benzyl)-3,9,15,21-tetraisobutyl-4,10,12,16,22,24-hexamethyl-1,7,13,19-tetraoxa-4,10,16,22-tetraazacyclotetracosan-2,5,8,11,14,17,20,23-octaone] | < 1 | 1 | ≤ 1 | 0.0005 | 4 | 0.002
2 | Cc1ncccc1Cc1ccc(C[C@@H]2OC(=O)[C@H](CC(C)C)N(C)C(=O)[C@@H](C)OC(=O)[C@@H](CC(C)C)N(C)C(=O)[C@@H](Cc3ccc(Cc4cccnc4C)cc3)OC(=O)[C@@H](CC(C)C)N(C)C(=O)[C@@H](C)OC(=O)[C@H](CC(C)C)N(C)C2=O)cc1 [Example 3-273, (3S,6R,9R,12R,15R,18R,21S,24S)-3,9,15,21-tetraisobutyl-4,6,10,16,18,22-hexamethyl-12,24-bis[[4-[(2-methyl-3-pyridyl)methyl]phenyl]methyl]-1,7,13,19-tetraoxa-4,10,16,22-tetrazacyclotetracosane-2,5,8,11,14,17,20,23-octaone] | < 1 | 1 | ≤ 1 | 0.0003 | 6.7 | 0.002
3 | CC(C)C[C@H]1C(=O)O[C@H](Cc2ccc(Cc3ccnn3CC3CC3)cc2)C(=O)N(C)[C@@H](CC(C)C)C(=O)O[C@H](C)C(=O)N(C)[C@@H](CC(C)C)C(=O)O[C@H](Cc2ccc(Cc3ccnn3CC3CC3)cc2)C(=O)N(C)[C@@H](CC(C)C)C(=O)O[C@H](C)C(=O)N1C [Example 3-275, (3S,6R,9S,12R,15S,18R,21S,24R)-6,18-bis(4-((1-(cyclopropylmethyl)-1H-pyrazol-5-yl)methyl)benzyl)-3,9,15,21-tetraisobutyl-4,10,12,16,22,24-hexamethyl-1,7,13,19-tetraoxa-4,10,16,22-tetraazacyclotetracosan-2,5,8,11,14,17,20,23-octaone] | 1 to 3.3 | 1.8 | – | 0.001 | 10 | 0.01
4 | COc1ccncc1Cc1ccc(C[C@H]2OC(=O)[C@H](CC(C)C)N(C)C(=O)[C@@H](C)OC(=O)[C@H](CC(C)C)N(C)C(=O)[C@@H](Cc3ccc(Cc4cnccc4OC)cc3)OC(=O)[C@H](CC(C)C)N(C)C(=O)[C@@H](C)OC(=O)[C@H](CC(C)C)N(C)C2=O)cc1 [Example 3-282, (3S,6R,9S,12R,15S,18R,21S,24R)-3,9,15,21-tetraisobutyl-6,18-bis(4-((4-methoxypyridin-3-yl)methyl)benzyl)-4,10,12,16,22,24-hexamethyl-1,7,13,19-tetraoxa-4,10,16,22-tetraazacyclotetracosan-2,5,8,11,14,17,20,23-octaone] | – | 30 | – | 0.001 | 5 | 0.005
5 | CC(C)C[C@H]1C(=O)O[C@H](Cc2ccc(Cc3cncnc3C(C)C)cc2)C(=O)N(C)[C@@H](CC(C)C)C(=O)O[C@H](C)C(=O)N(C)[C@@H](CC(C)C)C(=O)O[C@H](Cc2ccc(Cc3cncnc3C(C)C)cc2)C(=O)N(C)[C@@H](CC(C)C)C(=O)O[C@H](C)C(=O)N1C [Example 3-283, (3S,6R,9S,12R,15S,18R,21S,24R)-3,9,15,21-tetraisobutyl-6,18-bis(4-((4-isopropylpyrimidin-5-yl)methyl)benzyl)-4,10,12,16,22,24-hexamethyl-1,7,13,19-tetraoxa-4,10,16,22-tetraazacyclotetracosan-2,5,8,11,14,17,20,23-octaone] | < 1 | 1 | ≤ 1 | 0.0005 | 6 | 0.003
6 | CC(C)C[C@H]1C(=O)O[C@H](Cc2ccc(Cc3cc(C4CC4)no3)cc2)C(=O)N(C)[C@@H](CC(C)C)C(=O)O[C@H](C)C(=O)N(C)[C@@H](CC(C)C)C(=O)O[C@H](Cc2ccc(Cc3cc(C4CC4)no3)cc2)C(=O)N(C)[C@@H](CC(C)C)C(=O)O[C@H](C)C(=O)N1C [Example 3-284, (3S,6R,9S,12R,15S,18R,21S,24R)-6,18-bis(4-((3-cyclopropylisoxazol-5-yl)methyl)benzyl)-3,9,15,21-tetraisobutyl-4,10,12,16,22,24-hexamethyl-1,7,13,19-tetraoxa-4,10,16,22-tetraazacyclotetracosan-2,5,8,11,14,17,20,23-octaone] | – | > 10 | – | 0.0005 | 200 | 0.1
7 | CC(C)C[C@H]1C(=O)O[C@H](Cc2ccc([C@H](F)c3nccs3)cc2)C(=O)N(C)[C@@H](CC(C)C)C(=O)O[C@H](C)C(=O)N(C)[C@@H](CC(C)C)C(=O)O[C@H](Cc2ccc([C@@H](F)c3nccs3)cc2)C(=O)N(C)[C@@H](CC(C)C)C(=O)O[C@H](C)C(=O)N1C [Example 3-285, (3S,6R,9S,12R,15S,18R,21S,24R)-6-(4-((R)-fluoro(thiazol-2-yl)methyl)benzyl)-18-(4-((S)-fluoro(thiazol-2-yl)methyl)benzyl)-3,9,15,21-tetraisobutyl-4,10,12,16,22,24-hexamethyl-1,7,13,19-tetraoxa-4,10,16,22-tetraazacyclotetracosan-2,5,8,11,14,17,20,23-octaone] | – | 5.7 | – | 0.0005 | 6 | 0.003
8 | CC(C)C[C@H]1C(=O)O[C@H](Cc2ccc(Cc3cnn(CCF)c3)cc2)C(=O)N(C)[C@@H](CC(C)C)C(=O)O[C@H](C)C(=O)N(C)[C@@H](CC(C)C)C(=O)O[C@H](Cc2ccc(Cc3cnn(CCF)c3)cc2)C(=O)N(C)[C@@H](CC(C)C)C(=O)O[C@H](C)C(=O)N1C [Example 3-286, (3S,6R,9S,12R,15S,18R,21S,24R)-6,18-bis(4-((1-(2-fluoroethyl)-1H-pyrazol-4-yl)methyl)benzyl)-3,9,15,21-tetraisobutyl-4,10,12,16,22,24-hexamethyl-1,7,13,19-tetraoxa-4,10,16,22-tetraazacyclotetracosan-2,5,8,11,14,17,20,23-octaone] | – | > 10 | – | 0.0005 | 60 | 0.03
9 | CC(C)C[C@H]1C(=O)O[C@H](Cc2ccc(Cc3ccc(C(F)F)nc3)cc2)C(=O)N(C)[C@@H](CC(C)C)C(=O)O[C@H](C)C(=O)N(C)[C@@H](CC(C)C)C(=O)O[C@H](Cc2ccc(Cc3ccc(C(F)F)nc3)cc2)C(=O)N(C)[C@@H](CC(C)C)C(=O)O[C@H](C)C(=O)N1C [Example 3-287, (3S,6R,9S,12R,15S,18R,21S,24R)-6,18-bis(4-((6-(difluoromethyl)pyridin-3-yl)methyl)benzyl)-3,9,15,21-tetraisobutyl-4,10,12,16,22,24-hexamethyl-1,7,13,19-tetraoxa-4,10,16,22-tetraazacyclotetracosan-2,5,8,11,14,17,20,23-octaone] | – | > 10 | – | 0.0005 | 100 | 0.05
10 | CC(C)C[C@H]1C(=O)O[C@H](Cc2ccc(Cc3cncnc3C3CC3)cc2)C(=O)N(C)[C@@H](CC(C)C)C(=O)O[C@H](C)C(=O)N(C)[C@@H](CC(C)C)C(=O)O[C@H](Cc2ccc(Cc3cncnc3C3CC3)cc2)C(=O)N(C)[C@@H](CC(C)C)C(=O)O[C@H](C)C(=O)N1C [Example 3-289, (3S,6R,9S,12R,15S,18R,21S,24R)-6,18-bis(4-((4-cyclopropylpyrimidin-5-yl)methyl)benzyl)-3,9,15,21-tetraisobutyl-4,10,12,16,22,24-hexamethyl-1,7,13,19-tetraoxa-4,10,16,22-tetraazacyclotetracosan-2,5,8,11,14,17,20,23-octaone] | 1 to 3.3 | 3.3 | – | 0.0005 | 6 | 0.003
11 | CC(C)C[C@H]1C(=O)O[C@H](Cc2ccc(Cc3cccnc3C(F)F)cc2)C(=O)N(C)[C@@H](CC(C)C)C(=O)O[C@H](C)C(=O)N(C)[C@@H](CC(C)C)C(=O)O[C@H](Cc2ccc(Cc3cccnc3C(F)F)cc2)C(=O)N(C)[C@@H](CC(C)C)C(=O)O[C@H](C)C(=O)N1C [Example 3-290, (3S,6R,9S,12R,15S,18R,21S,24R)-6,18-bis[[4-[[2-(difluoromethyl)-3-pyridyl]methyl]phenyl]methyl]-3,9,15,21-tetraisobutyl-4,10,12,16,22,24-hexamethyl-1,7,13,19-tetraoxa-4,10,16,22-tetrazacyclotetracosane-2,5,8,11,14,17,20,23-octaone] | < 1 | 0.2 | ≤ 1 | 0.0001 | 3 | 0.0003
